In data set [1] the test system is mouse adult neural stem cells derived from the lateral ventricle wall. The data set is described as follows: Intracellular ATP assay on adult mouse neurosphere cultures. It is filed as cell-based. The following applies: for intracellular ATP levels, and hence cell number (adult mouse NSC proliferation or survival in vitro): 3 days, non-adherent conditions, values normalized to the vehicle (100%). The protocol: The anterior lateral wall of the lateral ventricle of 5-6 week old mice was enzymatically dissociated in 0.8mg/ml hyaluronidase and 0.5 mg/ml trypsin in DMEM containing 4.5 mg/ml glucose and 80units/ml DNase at 37° C. for 20 min. The cells were gently triturated and mixed with three volumes of Neurosphere medium (DMEM/F12, B27 supplement, 12.5 mM HEPES pH7.4) containing 20 ng/ml EGF (unless otherwise stated), 100units/ml penicillin and 100 μg/ml streptomycin. After passing through a 70 μm strainer, the cells were pelleted at 160×g for 5 min. The supernatant was subsequently removed and the cells resuspended in Neurosphere medium supplemented as above, plated out in culture dishes and incubated at 37° C. Neurospheres were ready to be split approximately 7 days after plating.
To split neurosphere cultures, neurospheres were collected by centrifugation at 160×g for 5 min. The neurospheres were resuspended in 0.5 ml Trypsin/EDTA in HBSS (1×), incubated at 37° C. for 2 min and triturated gently to aid dissociation. Following a further 3 min incubation at 37° C. and trituration, 3 volumes of ice cold NSPH-media-EGF were added to stop further trypsin activity. The cells were pelleted at 220×g for 4 min, resuspended in fresh Neurosphere medium supplemented with 20 ng/ml EGF and 1 nM bFGF plated out and incubated at 37° C.
Mouse neurospheres, cultured as described above, from passage 2, were seeded in DMEM/F12 supplemented with B27 into a 96-well plate as single cells (10000 cells/well) to the substances to be measured were added at the concentrations indicated. After 3 days incubation, intracellular ATP was measured using the ATP-SL kit from BioThema, Sweden, according to the manufacturer's instructions. The LXR agonists: 5-Cholesten-24(s), 25-epoxy-3b-ol were purchased from Steraloids (no C6640-000): TO-901317 were purchased from Sigma-Aldrich (no T2320). The RXR agonist cis-4,7,10,13,16,19-Docosahexaenoic acid (DHA) were purchased from Sigma-Aldrich (no 43938). […]

For data set [2], the system named is irritant dermatitis. The following applies: phorbol 12-myristate-13-acetate on ears of CD1 mice; cited from earlier work.
The test system of data set [3] is phospholipase A2 (PLA2). As to conditions: cited from earlier work; for PLA2 enzymatic activity / PLA2 mRNA: rat smooth muscle cells.
The test system of data set [4] is rat pheochromocytoma cells. As to conditions: cited from earlier work.
For data set [5], the system named is beta-amyloid induced apoptosis. As to conditions: Alzheimer's disease; cited from earlier work.
For data set [6], the system named is cells in the LVW. Kind of data set: Oral administration of TO-901317 in chow, BrdU incorporation in the lateral ventricle wall. The following applies: 4.3 and 43 mg/kg/day, mouse. The data set is classed as in vivo, C57BL/6J male mice. The procedure:
(§1) C57BL/6J male mice were housed under controlled temperature and humidity and had free access to water and chow. 40 mice were divided into 5 groups (n=8). Group 1 received chow mixed with 0.025% T0901317 (Sigma-Aldrich) ad libitum for 10 days (dose previously show to be effective for brain activity of the compound). On day 7 and 8 the animals received a single injection of 5-bromodeoxyuridine, 100 mg/kg i.p., respectively and were sacrificed on day 10 by means of cervical dislocation.
Group 2 received identical treatment except that the chow in this case contained 0.0025% T0901317. […] No correlation between weight gain, food intake or BrdU incorporation could be detected. […]
Brains were cut into 14-μm coronal sections using a cryostat-microtome. […] After 1 hour of washing, the BrdU-antibody complex was detected using 0.05% diaminobenzidine with 0.01% H2O2, and counterstained with Hematoxylin. […]
(§2) For all BrdU labeling experiments, three to six sections per animal were analyzed. BrdU-positive cells were counted along 2×250 micrometer strips of the lateral ventricle wall (including the ependymal cell layer and subventricular zone). […] The numbers of BrdU-positive cells are calculated per area (mm^2). The mean ± SEM were calculated. Differences between means were determined by one-way ANOVA.

Data set [7] concerns cells in the LVW. Kind of data set: Intracerebroventricular infusion of TO-901317, BrdU incorporation in the lateral ventricle wall. As to conditions: icv infusion 0.6 nmol/animal/day, 14 days, rat; calculated day concentration 0.2 μM. It is filed as in vivo, male Wistar rats. The procedure:
10 week old male Wistar rats maintained on a 12hr light/dark cycle with food and water ad libidum, were infused in the right lateral ventricle with TO-901317 (Sigma-Aldrich), using an Alzet pump (2002), 14 days at a daily dose of 0.6 nmol/animal/day (infused at a rate of 0.5 μl/hr; 50 μM solution). Bromodeoxyuridine (BrdU) (50 mg/ml) was also included in the infusion vehicle (0.9% saline containing 1 mg/ml mouse serum albumin (Sigma)) to enable measurement of proliferation by quantitation of BrdU incorporation in the DNA. Animals were sacrificed at day 14, perfused with PBS and the brains removed and frozen at −70° C. prior to sectioning for immumohistochemical analysis.
Brains were cut into 14-μm coronal sections using a cryostat-microtome. The sections were thawed onto pretreated slides and fixed in 4% (wt/vol) paraformaldehyde/PBS for 10 min. […] After 1 hour of washing, the BrdU-antibody complex was detected using 0.05% diaminobenzidine with 0.01% H2O2, and counterstained with Hematoxylin. […]
as §2

Data set [8] can be described thus: Weight gain and food intake during oral administration. It is filed as in vivo, C57BL/6J male mice. As to conditions: chow with 0.025% or 0.0025% compound, mouse. The protocol:
as §1
Group 2 received identical treatment except that the chow in this case contained 0.0025% T0901317. Group 3 and 4 received identical treatments as groups 1 and 2, respectively, with the exception that these animals received 5-bromodeoxyuridine injections on day 1 and 2 after the initiation of the experiment and were sacrificed on day 4. Group 5 served as control and received chow without any T0901317 but identical to groups 1-4 received two daily injections of 5-bromodeoxyuridine 100 mg/kg i.p. and was sacrificed two days later. The mean daily intake was 4.25±0.13 (S.E.M.) g chow, and the mean weight of the animals 24.8±0.11 (S.E.M.) g during the cause of the experiment resulting in an average dose of 43 mg/kg/day for groups 1 and 3 (“High”), and an average dose of 4.3 mg/kg/day for groups 2 and 4 (“Low”). […] No correlation between weight gain, food intake or BrdU incorporation could be detected. […]

“Also recorded” adds a separate entry of the source.

As for `C[C@H](CC[C@@H]1OC1(C)C)[C@H]1CC[C@H]2[C@@H]3CC=C4C[C@@H](O)CC[C@]4(C)[C@H]3CC[C@]12C` [5-Cholesten-24(s), 25-epoxy-3b-ol], the “intracellular ATP levels, and hence cell number (adult mouse NSC proliferation or survival in vitro)” value in data set [1] is on record as “mediates adult mouse NSC proliferation or survival in vitro”.

For `CC(C)CC[C@@H](O)[C@@H](C)[C@H]1CC[C@H]2[C@@H]3CC=C4C[C@@H](O)CC[C@]4(C)[C@H]3CC[C@]12C` [22(R)-hydroxycholesterol], the irritant dermatitis entry in data set [2] is recorded as “able to reduce irritant dermatitis”. Moreover, in data set [3], the PLA2 enzymatic activity result is listed as “increased enzymatic activity” and the “PLA2 mRNA” value is “accumulation of PLA2 mRNA”. The PLA2 promoter activity entry in data set [3] (transient transfection, in combination with 9-cis-retinoic acid) is on record as “synergistically activated”. Also, the “neuronal differentiation measured as neurite outgrowth” value in data set [4] is “induces neuronal differentiation”. Also, the beta-amyloid induced apoptosis entry in data set [5] is recorded as “prevention of beta-amyloid induced apoptosis”.

As for `C[C@H](CCCC(C)(C)O)[C@H]1CC[C@H]2[C@@H]3CC=C4C[C@@H](O)CC[C@]4(C)[C@H]3CC[C@]12C` [25-hydroxycholesterol], the irritant dermatitis result in data set [2] was “able to reduce irritant dermatitis”. Moreover, in data set [3], the PLA2 enzymatic activity entry was “increased enzymatic activity” and the “PLA2 mRNA” value was “accumulation of PLA2 mRNA”.

As for `O=C(O)Cc1cccc(OCCCN(Cc2cccc(C(F)(F)F)c2Cl)CC(c2ccccc2)c2ccccc2)c1` [GW3965], the irritant dermatitis result in data set [2] is recorded as “able to reduce irritant dermatitis”.

Regarding `O=S(=O)(c1ccccc1)N(CC(F)(F)F)c1ccc(C(O)(C(F)(F)F)C(F)(F)F)cc1` [TO-901317], the “intracellular ATP levels, and hence cell number (adult mouse NSC proliferation or survival in vitro)” value in data set [1] is reported as “mediates adult mouse NSC proliferation or survival in vitro”. Moreover, the “concentration-response relationship observed in vitro with cultured mouse NSC” value in data set [1] (Example 2, effective concentrations) is 3 to 5 µM. Further, the “incorporation of BrdU of cells in the LVW” value in data set [6] was “significantly decreased; also recorded: clearly effective”. Further, in data set [7], the “incorporation of BrdU in the LVW” value was “did not significantly change; also recorded: ineffective”. Also, the “weight gain or food intake” value in data set [8] was “No difference between groups”.

Consider `CCCCCCCCCCCCCCOc1ccc(C(=O)O)o1` [TOFA, 5-tetradecyloxy-2-furancarboxylic acid], for which the “neuronal differentiation measured as neurite outgrowth” value in data set [4] is “induces neuronal differentiation”.

The record behind these values is US20050003998A1, “Therapeutic use of selective LXR modulators” (priority 2002, published 2005).
